Key:
[1] = target: T1, human GR ligand-binding domain (Homo sapiens, UniProt P04150); assay: MARCoNI peptide interaction profiling (coregulator-nuclear receptor interaction); format: biochemical; details: for interactions at a number of motifs (dexamethasone-exclusive cluster): 1 µM; for ligand-induced interaction at the majority of coregulator motifs: cortisol 1 µM, dexamethasone 1 µM
T1 construct: purchased Invitrogen PV4689
T1 sequence (P04150 524-758 limits assumed): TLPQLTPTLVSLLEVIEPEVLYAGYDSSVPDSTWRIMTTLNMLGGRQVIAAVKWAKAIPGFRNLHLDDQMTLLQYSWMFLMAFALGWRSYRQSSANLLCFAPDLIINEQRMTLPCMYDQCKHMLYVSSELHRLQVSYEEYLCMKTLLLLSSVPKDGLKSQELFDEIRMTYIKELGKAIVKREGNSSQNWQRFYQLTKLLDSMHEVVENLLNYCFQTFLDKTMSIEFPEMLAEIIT
Experimental: As the assay utilizes human GR, experiments were performed with cortisol rather than corticosterone. […] Incubation was performed at 20°C in a PamStation96 (PamGene International, Den Bosch, Netherlands) for 40 min. Receptor binding to each peptide on the array, reflected by a fluorescent signal, was quantified by analysis of .tiff images using BioNavigator software (PamGene International).

[2] = system: GR transcriptional activity; assay: Acute corticosterone exposure or basal conditions: RT-qPCR of GR target genes in tissues; format: in vivo, C57Bl/6J mice; details: corticosterone 1.5 mg/kg s.c., 1 h; liver, muscle, BAT, WAT, hippocampus; except Sgk1 in muscle, hippocampus and Mt2a in hippocampus
Experimental: (§1) All studies involving animals were approved by the institutional ethics committee on animal care and experimentation at the Leiden University Medical Center. The 8-week old male C57Bl/6J mice (Charles River) were housed in ventilated cages with a 12 h light:12 h darkness regime and ad libitum access to food and water. In the acute corticosterone exposure experiments, mice received a synthetic chow diet (Research Diets, New Brunswick, NJ, USA) containing vehicle or CORT125281 (6, 20 or 60 mg/kg/day, Corcept Therapeutics, Menlo Park, CA, USA) for 6 days. […] Mice were treated daily with vehicle, 60 mg/kg mifepristone (Corcept Therapeutics) or 60 mg/kg CORT125281 (dissolved in PBS with 0.1% Tween 80 and 0.5% hydroxypropylmethylcellullose, Corcept Therapeutics) via oral gavage for 5 days, after which mice were killed by CO2 inhalation. Throughout the experiment, body weight was monitored and body composition was determined with EchoMRI™ (Frankfurt, Germany). After 5 days, blood was collected from the lateral tail vain in paraoxon-coated capillaries after a 6-h fast. Plasma triglyceride, total cholesterol, free fatty acid, glucose and insulin levels were determined using commercially available kits (Roche; Instruchemie, Delfzijl, Netherlands and Crystal Chem, Zaandam, Netherlands). Blood concentrations of the major leukocyte classes, that is, lymphocytes, monocytes and eosinophils, were determined in whole blood using an automatic veterinary hematology analysis (Sysmex XT-2000iV; Goffin Meyvis, Etten-Leur, the Netherlands).
(§2) In both acute and subchronic corticosterone experiments, relevant tissues (including quadriceps muscle, interscapular BAT, gonadal white adipose tissue (WAT), adrenals, spleen, thymus, pituitary and hippocampus) were collected to determine tissue weight and/or for further molecular analysis.
(§3) Total RNA was isolated from snap-frozen tissues using TriPure isolation reagent (Roche). After reverse transcription to cDNA (Promega), RT-qPCR was performed using IQ SYBR-Green supermix and MyIQ thermal cycler (Bio-RAD CFX96). Primers were tested for high efficiency (90–110%) and for amplification of a single PCR product. All primer sequences are listed in Supplementary Table 1 (see section on supplementary materials given at the end of this article), with the exception of Ncor1 and Ncor2 which were purchased from Qiagen. Fold change expression was calculated using the 2^−ΔΔ^CT method.

[3] = system: male C57Bl/6J mice; assay: Subchronic corticosterone exposure (pellet): body composition, organ weights, leukocytes, plasma insulin, glucose, lipids; format: in vivo
Experimental: as §1, §2

[4] = system: GR transcriptional activity; assay: Subchronic corticosterone exposure: RT-qPCR of GR and insulin target genes in tissues; format: in vivo, C57Bl/6J mice
Experimental: as §1, §2, §3

[5] = system: GR; parameters: method as in Lahteenmaki et al. 1987, Kroon et al. 2018; details: half maximal inhibitory concentration of the GR antagonist; ref Lahteenmaki et al. 1987, Kroon et al. 2018; cited from earlier work
[6] = system: progesterone receptor; parameters: method as in earlier work; details: ref Jung-Testas & Baulieu 1983, Gaillard et al. 1984, Kloosterboer et al. 1995, Kroon et al. 2018; cited from earlier work
[7] = system: GR; details: mifepristone; ref Havel et al. 1996, van den Heuvel et al. 2016, Kroon et al. 2018; cited from earlier work
[8] = system: HPA-axis activity; parameters: method as in Kroon et al. 2018; details: chronic administration via the food; ref Kroon et al. 2018; cited from earlier work
[9] = system: androgen receptor; details: ref Jung-Testas & Baulieu 1983, Gaillard et al. 1984, Kloosterboer et al. 1995, Kroon et al. 2018; cited from earlier work
[10] = mifepristone 0.1 µM, CORT125281 1 µM
[11] = corticosterone pellet 12.5 mg, 5 days, no antagonist
[12] = corticosterone pellet 5 days, 60 mg/kg/day oral gavage

SMILES: C[C@@H]1C[C@H]2[C@@H]3CCC4=CC(=O)C=C[C@]4(C)[C@@]3(F)[C@@H](O)C[C@]2(C)[C@@]1(O)C(=O)CO [dexamethasone]
- interactions at a number of motifs (dexamethasone-exclusive cluster) [1]: induced substantial interactions
- ligand-induced interaction at the majority of coregulator motifs [1, 10]: induced motif binding

SMILES: C[C@]12CCC(=O)C=C1CC[C@@H]1[C@@H]2[C@@H](O)C[C@@]2(C)[C@H]1CC[C@]2(O)C(=O)CO [cortisol]
- interactions at a number of motifs (dexamethasone-exclusive cluster) [1]: without effect
- ligand-induced interaction at the majority of coregulator motifs [1, 10]: induced motif binding

SMILES: C[C@]12C[C@H](O)[C@H]3[C@@H](CCC4=CC(=O)CC[C@@]43C)[C@@H]1CC[C@@H]2C(=O)CO [corticosterone]
- expression of GR target genes Fkbp5, Gilz, Sgk1, Mt2a after corticosterone injection [2]: upregulated expression of all GR target genes
- fat mass under subchronic corticosterone exposure [3, 11]: increase
- lean mass under subchronic corticosterone exposure [3, 11]: reduced
- plasma insulin under subchronic corticosterone exposure [3, 11]: induced hyperinsulinemia
- spleen weight under subchronic corticosterone exposure [3, 11]: decreased
- Eosinophil count ([3]; corticosterone pellet 5 days, no antagonist): Not detected

SMILES: CC#C[C@]1(O)CC[C@H]2[C@@H]3CCC4=CC(=O)CCC4=C3[C@@H](c3ccc(N(C)C)cc3)C[C@@]21C [mifepristone]
- binding of corepressor motifs of NCOR1 and NCOR2 (SMRT) by ligand-GR complex [1, 10]: strongly bound
- HOMA-IR [3, 12]: improved
- corticosterone-induced decrease of spleen weight [3, 12]: prevented
- corticosterone-induced fat mass [3, 12]: non-significantly reduced
- corticosterone-induced hyperlipidaemia (plasma triglycerides, total cholesterol) [3, 12]: seemed to modestly reduce
- corticosterone-induced immune suppression (total white blood cells, lymphocytes, monocytes, eosinophils) [3, 12]: fully prevented
- free fatty acid levels [3, 12]: did not affect
- glucose levels [3, 12]: improved
- lean mass (reduced by corticosterone) [3, 12]: not altered
- corticosterone-induced hyperinsulinemia ([3]; corticosterone pellet 5 days, 60 mg/kg/day oral gavage, 6-h fast): fully prevented
- basal mRNA expression of some GR target genes (Gilz in liver, muscle and BAT; Mt2a in BAT) ([4]; 60 mg/kg/day oral gavage 5 days, sham pellet): reduced
- corticosterone-induced expression of GR target genes (Fkbp5, Gilz, Sgk1, Mt2a) ([4]; corticosterone pellet 5 days, 60 mg/kg/day oral gavage, liver, muscle, BAT, WAT, hippocampus): effectively prevented
- IC50 [5]: 43 nM
- activity at the progesterone receptor [6]: antagonizes
- partial agonism at GR [7]: partial agonistic properties
- endogenous corticosterone levels [8]: suppressed
- activity at the androgen receptor [9]: antagonizes

From PMC7274539, “The selective glucocorticoid receptor antagonist CORT125281 has tissue-specific activity” (The Journal of Endocrinology, 2020)
